Laboratory results: patent publication US20260365690A1, “COMPOUND FOR RNA CAPPING AND USE THEREOF” (GUANGZHOU HENOVCOM BIOSCIENCE CO., LTD., priority 2022, published 2026)

Assays:
HEK293T cells = test: Expression efficiency of capped luciferase mRNAs in HEK293T cells; format: cell-based; conditions: 6 h after transfection of capped luciferase mRNA into HEK293T cells; ratio to N-7413 (= 1)
Procedure: 2. Evaluation of Expression Efficiency of Different Capped Luciferase mRNAs in HEK293T Cells
1) HNE293T cells were cultured in DMEM medium containing 10% FBS and penicillin/streptomycin at 37 °C and 5% CO2.
2) The cultured HEK293T cells were spread in a 96-well plate with 1.25×10^4 cells per well.
3) After the cells completely adhered to the wall, 0.5 μg of a mixture of mRNA sample and Polyplus jetMESSENGER was added to each well of cells, and cultured at 37 °C and 5% CO2 for 6 hours.
4) The growth medium was removed from the cells to be tested and the cells were rinsed with PBS. After centrifugation to remove PBS, 50 μL of 1× lysis buffer was added thereto, and cells and all liquid were transferred to a microcentrifuge tube, and then centrifuged at 12000×g and 4 °C for 2 min.
5) The supernatant was transferred to a new tube. Fluorescence readings were detected using the ONE-Glo Luciferase Assay System Kit.
3. All compounds, N-7413, negative control and blank control were tested under the same conditions, and some experimental results in the test results are shown in Table 5.
The relative fluorescence reading results (6 h) after transfection of capped mRNA into 293T cells are now provided, as shown in Table 5. It can be seen from the FIGURE that the mRNA capped by the compound of the present disclosure has a high expression level, and some cap structures can enable higher expression efficiency of mRNA compared to N-7413.

mRNA [1] = test: Capping efficiency of mRNA by LC-MS; format: biochemical; conditions: cap analog 4 mM in in vitro transcription, RNase H cleaved 5′ fragment
Procedure: (§1) 1) The plasmids were linearized and the DNA templates were purified.
(§2) 2) The mRNA was synthesized by in vitro transcription, using 11 cap structures of the present disclosure, positive control CleanCap®AG (3′OMe) (Trilink, N-7413), negative control (uncapped mRNA) and blank control (DNase/RNase-Free water), respectively.
(§3) The reaction was carried out at 37 °C for 2 to 3 hours. TURBO DNase digestion was carried out for 15 minutes. The mRNA was precipitated by LiC for 30 min or more or overnight, and the mRNA precipitate was washed with 75% ethanol, dried briefly to evaporate the ethanol, and the mRNA was redissolved with RNase-Free water.
Gradient annealing was performed in a PCR instrument: […]
5) Magnetic beads were pre-treated and bound to probes.
100 μL of magnetic beads were taken and placed on a magnetic stand. The storage solution was discarded, and 100 μL of 1*BW solution was added thereto. After mixing well, the mixture was placed on the magnetic stand, and the supernatant was discarded. The wash was carried out three times in the same way. 100 μL of wash A buffer was added thereto. After mixing well, the mixture was placed on the magnetic stand, and the supernatant was discarded. The wash was carried out three times in the same way. 100 μL of wash B buffer was added thereto. After mixing well, the mixture was placed on the magnetic stand, and the supernatant was discarded. The wash was carried out three times in the same way. 120 μL of the sample was added to the magnetic bead solution and incubated for 30 min at room temperature with gentle mixing while incubating.
6) The mRNA was cut to obtain the 5′ single-stranded sequence of mRNA bound to probes.
20 μL of RNase H (5 U/μL) was added thereto, incubated at 37 °C for 3 hours, and mixed well every half hour. 100 μL of 1*BW solution was added thereto. After mixing well, the mixture was placed on the magnetic stand, and the supernatant was discarded. The wash was carried out three times in the same way. 100 μL of deionized water solution was added thereto. After mixing well, the mixture was placed on the magnetic stand, and the supernatant was discarded. The wash was carried out three times in the same way. 100 μL of 75% methanol was added thereto at 80 °C, then the mixture was heated to 80 °C on a heating plate and held for 3 min, placed on the magnetic stand, and the supernatant was aspirated. The sample was dried at room temperature for 45 min to 10 μL using an evaporative centrifuge and then resuspended in 50 μL of 100 μM EDTA/1% MeOH for LC-MS analysis.
LC-MS was used to analyze the capping efficiency of mRNA synthesized by analogues with different cap structures. The capping efficiency results of some compounds in the detection results are now provided.

mRNA [2] = test: mRNA synthesis by in vitro transcription (co-transcriptional capping), final product mass; format: biochemical; conditions: obtained from 20 μL mRNA synthesis reaction system; T7 RNA Polymerase; cap analog 4 mM; 37 °C, 2 to 3 hours
Procedure: as §1, §2, §3
3) The transcription product was purified, and the reaction yield was calculated to provide the test results of some compounds, as shown in Table 2.

| Structure (SMILES) | Relative fluorescence reading (HEK293T cells) | Capping efficiency (mRNA [1]) | Final product mass (mRNA [2]) [µg] |
| --- | --- | --- | --- |
| C=CC[C@H]1[C@@H](O)[C@H](n2c[n+](C)c3c(=O)[nH]c(N)nc32)O[C@@H]1COP(=O)(O)OP(=O)(O)OP(=O)(O)OC[C@H]1O[C@@H](n2cnc3c(N)ncnc32)[C@H](OC)[C@@H]1OP(=O)(O)OC[C@H]1O[C@@H](n2cnc3c(=O)[nH]c(N)nc32)[C@H](O)[C@@H]1O [Compound 710] | 1.90 | A (100% > A ≥ 95%) | 108 |
| CO[C@@H]1[C@H](OP(=O)(O)OC[C@H]2O[C@@H](n3cnc4c(=O)[nH]c(N)nc43)[C@H](O)[C@@H]2O)[C@@H](COP(=O)(O)OP(=O)(O)OP(=O)(O)OC[C@H]2O[C@@H](n3c[n+](C)c4c(=O)[nH]c(N)nc43)[C@H](O)[C@@H]2NC(C)=O)O[C@H]1n1cnc2c(N)ncnc21 [Compound 289] | 1.70 | A (100% > A ≥ 95%) | 113 |
| CO[C@@H]1[C@H](OP(=O)(O)OC[C@H]2O[C@@H](n3cnc4c(=O)[nH]c(N)nc43)[C@H](O)[C@@H]2O)[C@@H](COP(=O)(O)OP(=O)([O-])OP(=O)(O)OC[C@H]2O[C@@H](n3c[n+](C)c4c(=O)[nH]c(N)nc43)[C@H](O)[C@@H]2C(=O)N(C)C)O[C@H]1n1cnc2c(N)ncnc21 [Compound 193] | 1.64 | A (100% > A ≥ 95%) | 105 |
| CO[C@@H]1[C@H](OP(=O)(O)OC[C@H]2O[C@@H](n3cnc4c(=O)[nH]c(N)nc43)[C@H](O)[C@@H]2O)[C@@H](COP(=O)(O)OP(=O)(O)OP(=O)(O)OC[C@H]2O[C@@H](n3c[n+](C)c4c(=O)[nH]c(N)nc43)[C@H](O)[C@@H]2C)O[C@H]1n1cnc2c(N)ncnc21 [Compound 1] | 1.74 | A (100% > A ≥ 95%) | 96 |
| CO[C@@H]1[C@H](OP(=O)(O)OC[C@H]2O[C@@H](n3cnc4c(=O)[nH]c(N)nc43)[C@H](O)[C@@H]2O)[C@@H](COP(=O)(O)OP(=O)(O)OP(=O)(O)OC[C@H]2O[C@@H](n3c[n+](C)c4c(=O)[nH]c(N)nc43)[C@H](O)[C@@H]2CCF)O[C@H]1n1cnc2c(N)ncnc21 [Compound 19] | 1.52 | A (100% > A ≥ 95%) | 137 |
| CO[C@@H]1[C@H](OCOC[C@H]2O[C@@H](n3cnc4c(=O)[nH]c(N)nc43)[C@H](O)[C@@H]2O)[C@@H](COP(=O)(O)OP(=O)(O)OP(=O)(O)OC[C@H]2O[C@@H](n3c[n+](C)c4c(=O)[nH]c(N)nc43)[C@H](O)[C@@H]2C)O[C@H]1n1cnc2c(N)ncnc21 [Compound 57] | 0.88 | C (90% > C ≥ 80%) | 90 |
| CCC[C@H]1[C@@H](O)[C@H](n2c[n+](C)c3c(=O)[nH]c(N)nc32)O[C@@H]1COP(=O)(O)OP(=O)(O)OP(=O)(O)OC[C@H]1O[C@@H](n2cnc3c(N)ncnc32)[C@H](OC)[C@@H]1OP(=O)(O)OC[C@H]1O[C@@H](n2cnc3c(=O)[nH]c(N)nc32)[C@H](O)[C@@H]1O.[Na+] [Compound 5] | 1.85 | A (100% > A ≥ 95%) | 117 |
